Measured values published in ChEMBL document CHEMBL1132262, “Estrogen receptor subtype-selective ligands: asymmetric synthesis and biological evaluation of cis- and trans-5,11-dialkyl- 5,6,11, 12-tetrahydrochrysenes” (J Med Chem, 1999).

target: Estrogen receptor beta (Homo sapiens) (UniProt Q92731); assay: Binding affinity for human ER(estrogen receptor)beta
Sequence (Q92731 whole entry): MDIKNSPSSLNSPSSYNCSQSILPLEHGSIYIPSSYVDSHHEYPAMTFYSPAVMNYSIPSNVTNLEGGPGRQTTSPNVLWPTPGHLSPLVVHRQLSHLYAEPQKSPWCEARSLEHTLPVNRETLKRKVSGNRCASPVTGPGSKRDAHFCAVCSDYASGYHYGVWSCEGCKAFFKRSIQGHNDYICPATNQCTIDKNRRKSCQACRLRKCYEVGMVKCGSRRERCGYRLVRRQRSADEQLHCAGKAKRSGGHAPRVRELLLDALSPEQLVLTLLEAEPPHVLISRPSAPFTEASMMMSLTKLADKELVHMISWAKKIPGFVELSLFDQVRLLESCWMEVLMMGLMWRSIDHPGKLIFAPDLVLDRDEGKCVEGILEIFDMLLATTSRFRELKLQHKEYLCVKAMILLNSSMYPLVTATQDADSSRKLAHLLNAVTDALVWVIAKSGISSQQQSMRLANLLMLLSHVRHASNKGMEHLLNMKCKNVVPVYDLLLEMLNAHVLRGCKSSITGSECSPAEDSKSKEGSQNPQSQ

| SMILES | Relative binding affinity |
| --- | --- |
| Oc1ccc2c(c1)CCC1=C2CCc2cc(O)ccc21 | 6.5 |
| CCC[C@H]1Cc2cc(O)ccc2C2=C1c1ccc(O)cc1C[C@@H]2CCC | 5.1 |
| C[C@]12CC[C@@H]3c4ccc(O)cc4CC[C@H]3[C@@H]1CC[C@@H]2O | 100 |
| CCCC1Cc2cc(O)ccc2C2=C1c1ccc(O)cc1CC2CCC (stereo not drawn) | 92.3 |
| CCC[C@@H]1Cc2cc(O)ccc2C2=C1c1ccc(O)cc1C[C@H]2CCC | 26 |

Now from value to molecule:

| Relative binding affinity | SMILES |
| --- | --- |
| 75 | CC1Cc2cc(O)ccc2C2=C1c1ccc(O)cc1C[C@@H]2C (single isomer, unassigned) |
| 254 | C[C@@H]1Cc2cc(O)ccc2C2=C1c1ccc(O)cc1C[C@@H]2C |
| 76 | CC1Cc2cc(O)ccc2C2=C1c1ccc(O)cc1C[C@H]2C (single isomer, unassigned) |
